Tests used:
Format in all cases: in vivo
commercial corn hybrids = experiment: Hybrid seed production (breeding station) field trial: final stand count and plot yield of corn from imidacloprid-treated seed; settings: for Stand count, Imidacloprid treated / Corn yield, Imidacloprid treated: 0.165 mg/kernel + fungicide; for Stand count, Imidacloprid treated: V5 stage; for Corn yield, Imidacloprid treated: at maturity, 15% moisture; for Corn yield, Difference / Stand count, Difference: imidacloprid treated vs fungicide-only control; for Actual Yield Over Expected: yield increase vs that expected from stand improvement (about 1% per 1,000 plants/ac); for Actual Yield Over 2× of Expected: yield increase vs two-times that predicted from stand improvement
corn hybrids = experiment: Field strip trials of corn yield under different tillage regimes: soil insecticide alone or plus Gaucho seed treatment
Protocol: Seed of three corn hybrids were treated with imidacloprid in the manner described in Example 3. Seed were planted using standard planting equipment in field experiments across the U.S. corn belt. All experiments were conducted as strip trials, under a variety of tillage regimes, and all trials received standard weed control and cultural practices common to commercial corn production. Plot yield was collected using standard mechanical harvesting equipment.
Soil insecticides were applied in the manner described in Example 2. Considerable increase in corn yield was also observed when corn seed treated with imidacloprid were planted in soils treated with soil-applied insecticide. The increase in yield was observed under all tillage conditions and for all the hybrids tested. Table 7 compares the yield from untreated corn seeds and corn seeds treated with imidacloprid when planted on soil treated with soil-applied insecticide. […] Soil-applied insecticides are known to be an effective method for controlling secondary insects, so the increase in corn yield was surprising.
No-Till-Tillage system refers to situations where no tillage methods are applied to the soil prior to or at planting.
Conservation/Minimum tillage refers to reduced tillage practices allowing at least 30% of soil surface to remain covered with crop residue.
Conventional Tillage refers to tillage practices where less than 30% of soil surface is covered with previous crop residue.
Such practices may include moldboard plowing, disking, or multiple field cultivation passes prior to or at planting of crop. Strip and Ridge-Till, although usually grouped in conservation tillage because of beneficial effects on soil and water retention, are grouped in conventional tillage here because the tilled zones in which the crop is planted provide an environment more similar to true conventional tillage.

[1] = test system: corn hybrids RX670 and RX601 having transgenic events MON853, MON863, MON810; experiment: Field trials of corn yield of transgenic seed at low pest pressure, with and without imidacloprid seed treatment; settings: 60 gm per 100 kg of seed; all trials; relative absence of insect pressure
Protocol: (§1) Corn hybrids with and without transgenic events expressing insecticidal proteins were evaluated for field efficacy. The hybrids that were evaluated were RX670 and RX601, each as an isoline (having no transgenic events) and each having a transgenic event expressing the Cry3Bb protein having activity against Diabrotica spp. (corn rootworm)—designated as MON853, or a transgenic event expressing the Cry3Bb protein having activity against corn rootworm—designated as MON863, or a combination of MON853 and a transgenic event expressing the Cry1A protein having activity against European corn borer—designated as MON810, or a combination of MON863 and MON810. Accordingly, an isoline and four transgenic forms were tested for each hybrid. Each type of seed was tested with and without seed treatment with 60 gm of imidacloprid per 100 kg of seed, applied in a Niklas seed treater. The isoline seeds were also tested with and without the use of conventional soil-applied insecticides, which were applied as described in Example 3.

[2] = test system: isoline (non-transgenic) corn hybrids RX670 and RX601; experiment: Field tests of corn yield of isoline hybrids at low pest pressure, with and without imidacloprid seed treatment; settings: 60 gm per 100 kg of seed; four location/hybrid cases
Protocol: as §1

[3] = test system: corn rootworm; secondary insect pests of corn; experiment: Insect protection of corn by imidacloprid seed treatment at 0.165 mg/kernel (stated as previously shown); settings: 0.165 mg imidacloprid/kernel
[4] = hybrid B = DKC46-26, 10 locations
[5] = hybrid D = DKC51-88, 10 locations
[6] = hybrid F = LH244XLH295, 10 locations
[7] = hybrid H = HC33XLH277, 14 locations
[8] = hybrid I = DKC57-38, 14 locations
[9] = vs fungicide-treated control, 12 hybrids

## O=[N+]([O-])NC1=NCCN1Cc1ccc(Cl)nc1 [Imidacloprid, imidacloprid]
Commercial corn hybrids; hybrid A = DK440, 10 locations
  Stand count, Imidacloprid treated: 31920 plts/ac
  Corn yield, Imidacloprid treated: 163.5 bu/ac
  Corn yield, Difference: 2.0 bu/ac
  Stand count, Difference: 843.8 plts/ac
Commercial corn hybrids; [4]
  Stand count, Imidacloprid treated: 32061 plts/ac
  Corn yield, Imidacloprid treated: 170.8 bu/ac
  Corn yield, Difference: 4.1 bu/ac
  Stand count, Difference: 439.0 plts/ac
Commercial corn hybrids; hybrid C = DK493, 10 locations
  Stand count, Imidacloprid treated: 31217 plts/ac
  Corn yield, Imidacloprid treated: 159.6 bu/ac
  Corn yield, Difference: 5.8 bu/ac
  Stand count, Difference: 749.5 plts/ac
Commercial corn hybrids; [5]
  Stand count, Imidacloprid treated: 31828 plts/ac
  Corn yield, Imidacloprid treated: 169.4 bu/ac
  Corn yield, Difference: −0.7 bu/ac
  Stand count, Difference: 946.8 plts/ac
Commercial corn hybrids; hybrid E = DK537, 10 locations
  Stand count, Imidacloprid treated: 32011 plts/ac
  Corn yield, Imidacloprid treated: 171.2 bu/ac
  Corn yield, Difference: 1.0 bu/ac
  Stand count, Difference: 620.0 plts/ac
Commercial corn hybrids; [6]
  Stand count, Imidacloprid treated: 30786 plts/ac
  Corn yield, Imidacloprid treated: 173.1 bu/ac
  Corn yield, Difference: 4.7 bu/ac
  Stand count, Difference: 1162.3 plts/ac
Commercial corn hybrids; hybrid G = DK567, 14 locations
  Stand count, Imidacloprid treated: 28766 plts/ac
  Corn yield, Imidacloprid treated: 167.5 bu/ac
  Corn yield, Difference: 3.5 bu/ac
  Stand count, Difference: 1189.2 plts/ac
Commercial corn hybrids; [7]
  Stand count, Imidacloprid treated: 28004 plts/ac
  Corn yield, Imidacloprid treated: 164.6 bu/ac
  Corn yield, Difference: 4.8 bu/ac
  Stand count, Difference: 39.6 plts/ac
Commercial corn hybrids; [8]
  Stand count, Imidacloprid treated: 28460 plts/ac
  Corn yield, Imidacloprid treated: 172.3 bu/ac
  Corn yield, Difference: 9.2 bu/ac
  Stand count, Difference: 1822.2 plts/ac
Commercial corn hybrids; hybrid J = DK585, 14 locations
  Stand count, Imidacloprid treated: 28273 plts/ac
  Corn yield, Imidacloprid treated: 179.5 bu/ac
  Corn yield, Difference: 3.7 bu/ac
  Stand count, Difference: 429.3 plts/ac
Commercial corn hybrids; hybrid K = DK611, 14 locations
  Stand count, Imidacloprid treated: 28984 plts/ac
  Corn yield, Imidacloprid treated: 171.3 bu/ac
  Corn yield, Difference: 0.1 bu/ac
  Stand count, Difference: 1022.8 plts/ac
Commercial corn hybrids; hybrid L = RX708, 14 locations
  Stand count, Imidacloprid treated: 28986 plts/ac
  Corn yield, Imidacloprid treated: 180.7 bu/ac
  Corn yield, Difference: 6.9 bu/ac
  Stand count, Difference: 803.7 plts/ac
Commercial corn hybrids; twelve hybrids, twenty four locations
  increase or decrease in corn yield vs untreated seeds (FIG. 2 by hybrid, FIG. 3 by location): consistent and commercially important increases in corn yield
Commercial corn hybrids; [9]
  hybrid/seed treatment combinations with yield increase more than expected on the basis of stand improvement alone: 9 out of 12
  hybrid/seed treatment combinations with yield increase over two-times that predicted on the basis of stand improvement: 7 out of 12
Commercial corn hybrids; hybrid A = DK440
  Actual Yield Over Expected: Yes
  Actual Yield Over 2× of Expected: No
Commercial corn hybrids; hybrid B = DKC46-26
  Actual Yield Over Expected: Yes
  Actual Yield Over 2× of Expected: Yes
Commercial corn hybrids; hybrid C = DK493
  Actual Yield Over Expected: Yes
  Actual Yield Over 2× of Expected: Yes
Commercial corn hybrids; hybrid D = DKC51-88
  Actual Yield Over Expected: No
  Actual Yield Over 2× of Expected: No
Commercial corn hybrids; hybrid E = DK537
  Actual Yield Over Expected: No
  Actual Yield Over 2× of Expected: No
Commercial corn hybrids; hybrid F = LH244XLH295
  Actual Yield Over Expected: Yes
  Actual Yield Over 2× of Expected: Yes
Commercial corn hybrids; hybrid G = DK567
  Actual Yield Over Expected: Yes
  Actual Yield Over 2× of Expected: No
Commercial corn hybrids; hybrid H = HC33XLH277
  Actual Yield Over Expected: Yes
  Actual Yield Over 2× of Expected: Yes
Commercial corn hybrids; hybrid I = DKC57-38
  Actual Yield Over Expected: Yes
  Actual Yield Over 2× of Expected: Yes
Commercial corn hybrids; hybrid J = DK585
  Actual Yield Over Expected: Yes
  Actual Yield Over 2× of Expected: Yes
Commercial corn hybrids; hybrid K = DK611
  Actual Yield Over Expected: No
  Actual Yield Over 2× of Expected: No
Commercial corn hybrids; hybrid L = RX708
  Actual Yield Over Expected: Yes
  Actual Yield Over 2× of Expected: Yes
Corn hybrids; conservation/minimum tillage
  increase in corn yield: 1.6%
Corn hybrids; convention tillage
  increase in corn yield: 1.7%
Corn hybrids; no-till cultivation
  increase in corn yield: 6.3%
Corn hybrids; planted on soil treated with soil-applied insecticide, all tillage conditions and hybrids
  corn yield vs seeds without imidacloprid treatment: considerably higher yield
[1]
  corn yield of transgenic seed treated with imidacloprid vs isolines and untreated transgenic strains: higher than the isolines, and also higher than the untreated transgenic strains
[2]
  effect of imidacloprid treatment on yield for isoline corn: increased by imidacloprid treatment in one-half of the cases tested
[3]
  protection of corn seedlings against stand reducing and growth limiting secondary insect pests: effective
[3]; locations with economically damaging levels of corn rootworm
  reduction of root injury by corn rootworm: not significantly reduce root injury

From patent publication US20040023802A1, “Increasing plant yield and/or vigor by seed treatment with a neonicotinoid compound” (Monsanto Technology, L.L.C., priority 2002, published 2004)
